Laboratory results published in publication PMC8457654 (European Journal of Medicinal Chemistry, 2021).
Where a SMILES comes first, the peptide text is derived from it. [ ]: non-standard residue; d: D form. The star is where a group is joined. AllylGly = C=CC[C@H](N)C(=O)O; Boc = CC(C)(C)OC(=O)*; NHBn = c1ccc(CN*)cc1; NHtBu = CC(C)(C)N*; ClAc = O=C(CCl)*

Experiments:
SARS-CoV-2 PL^pro = SARS-CoV-2 PL^pro (Severe acute respiratory syndrome coronavirus 2, UniProt P0DTD1); assay: PL^pro enzymatic assay; format: biochemical
[1] = system: SARS-CoV-2 UC-1075 strain; assay: SARS-CoV-2 antiviral assay in Vero cells, strain UC-1075; format: cell-based; conditions: Severe acute respiratory syndrome coronavirus 2, UC1075, Vero, 120 h, read-out: Antiviral activity EC50 UC-1075 #1 strain Vero cells
cytomegalovirus = assay: Antiviral activity over Vero cells infected with CMV; format: cell-based; conditions: data not shown
varicella zoster virus = assay: Antiviral activity over Vero cells infected with VZV; format: cell-based; conditions: data not shown
[2] = system: SARS-CoV-2 UC-1074 strain; assay: SARS-CoV-2 antiviral assay in Vero cells, strain UC-1074; format: cell-based; conditions: over two different SARS-CoV-2 strains as worded

Row | Compound | IC50 (SARS-CoV-2 PL^pro) | other results
1 | CC(C)(C)NC(=O)[C@H](Cc1c[nH]c2ccccc12)NC(=O)[C@@H]1CCCN1C(=O)OC(C)(C)C [Compound 7, tert-butyl 2-((1-(tert-butylamino)-3-(1H-indol-3-yl)-1-oxopropan-2-yl)carbamoyl)pyrrolidine-1-carboxylate] (Boc-Pro-Trp-NHtBu) | > 25 µM | –
2 | CC(C)(C)NC(=O)[C@H](Cc1c[nH]c2ccccc12)NC(=O)[C@H](Cc1ccccc1)NCc1ccc(-c2ccccc2)cc1 [Compound 22, (S)-2-(([1,1′-biphenyl]-4-ylmethyl)amino)-N-((S)-1-(tert-butylamino)-3-(1H-indol-3-yl)-1-oxopropan-2-yl)-3-phenylpropanamide] | > 25 µM | –
3 | CC(C)C[C@H](NCc1ccc(-c2ccccc2)cc1)C(=O)N[C@@H](Cc1c[nH]c2ccccc12)C(=O)NC(C)(C)C [Compound 23, 2-(([1,1′-biphenyl]-4-ylmethyl)amino)-N-(1-(tert-butylamino)-3-(1H-indol-3-yl)-1-oxopropan-2-yl)-4-methylpentanamide] | > 25 µM | –
4 | C#CC[C@H](NCc1ccc(-c2ccccc2)cc1)C(=O)N[C@@H](Cc1c[nH]c2ccccc12)C(=O)NC(C)(C)C [Compound 24, (S)-2-(([1,1′-biphenyl]-4-ylmethyl)amino)-N-((S)-1-(tert-butylamino)-3-(1H-indol-3-yl)-1-oxopropan-2-yl)pent-4-ynamide] | > 25 µM | –
5 | CC(C)C[C@H](NCc1ccc(-c2ccccc2)cc1)C(=O)N[C@@H](Cc1c[nH]c2ccccc12)C(=O)NCc1ccccc1 [Compound 25, (S)-2-(([1,1′-biphenyl]-4-ylmethyl)amino)-N-((S)-1-(benzylamino)-3-(1H-indol-3-yl)-1-oxopropan-2-yl)-4-methylpentanamide] | > 25 µM | EC50 [1]: > 20 µM
6 | C=CC[C@H](NCc1ccccc1)C(=O)N[C@@H](Cc1c[nH]c2ccccc12)C(=O)NCc1ccc(-c2ccccc2)cc1 [Compound 26, (S)–N-((S)-1-(([1,1′-biphenyl]-4-ylmethyl)amino)-3-(1H-indol-3-yl)-1-oxopropan-2-yl)-2-(benzylamino)pent-4-enamide] | > 25 µM | –
7 | C#CC[C@H](NCc1ccccc1)C(=O)N[C@@H](Cc1c[nH]c2ccccc12)C(=O)NCc1ccc(-c2ccccc2)cc1 [Compound 27, (S)–N-((S)-1-(([1,1′-biphenyl]-4-ylmethyl)amino)-3-(1H-indol-3-yl)-1-oxopropan-2-yl)-2-(benzylamino)pent-4-ynamide] | > 25 µM | Antiviral effect over cytomegalovirus (cytomegalovirus): no effects; Antiviral effect over varicella zoster virus (varicella zoster virus): no effects
8 | C#CC[C@H](NCCC)C(=O)N[C@@H](Cc1c[nH]c2ccccc12)C(=O)NCc1ccc(-c2ccccc2)cc1 [Compound 28, (S)–N-((S)-1-(([1,1′-biphenyl]-4-ylmethyl)amino)-3-(1H-indol-3-yl)-1-oxopropan-2-yl)-2-(propylamino)pent-4-ynamide] | > 25 µM | –
9 | C=CC[C@H](NC(=O)CCl)C(=O)N[C@@H](Cc1c[nH]c2ccccc12)C(=O)NCc1ccccc1 [Compound 29, (S)–N-((S)-1-(benzylamino)-3-(1H-indol-3-yl)-1-oxopropan-2-yl)-2-(2-chloroacetamido)pent-4-enamide] (ClAc-[AllylGly]-Trp-NHBn) | – | Cellular antiviral potency relative to compound 27 (fold higher) [2]: 28 fold; Antiviral effect over cytomegalovirus (cytomegalovirus): no effects; Antiviral effect over varicella zoster virus (varicella zoster virus): no effects
10 | C#CC[C@H](NC(=O)OC(C)(C)C)C(=O)N(Cc1ccccc1)Cc1cn(C)c2ccc(C(=O)OC)cc12 [Compound 35, (S)-Methyl 3-((N-benzyl-2-((tert-butoxycarbonyl)amino)pent-4-ynamido)methyl)-1-methyl-1H-indole-5-carboxylate] | > 25 µM | –
